Measurements: ChEMBL document CHEMBL3797087, “Synthesis of novel triazole/isoxazole functionalized 7-(trifluoromethyl)pyrido[2,3-d]pyrimidine derivatives as promising anticancer and antibacterial agents” (2016)
Values after ≈ are worked out from the molar mass of the structure shown.

Key:
Format in all cases: functional
A549 = assay: Anticancer activity against human A549 cells after 48 hrs by SRB assay; details: A549, 48 h
HeLa = assay: Anticancer activity against human HeLa cells after 48 hrs by SRB assay
MDA-MB-231 = assay: Anticancer activity against human MDA-MB-231 cells after 48 hrs by SRB assay; details: MDA-MB-231, 48 h
[1] = Anticancer activity against human PANC1 cells after 48 hrs by SRB assay; details: PANC-1, 48 h
Streptococcus pneumoniae [2] = assay: Antibacterial activity against Streptococcus pneumoniae after 24 hrs by agar diffusion assay
Staphylococcus aureus [3] = assay: Antibacterial activity against Staphylococcus aureus after 24 hrs by agar diffusion assay
Bacillus licheniformis [4] = assay: Antibacterial activity against Bacillus licheniformis after 24 hrs by agar diffusion assay
Pseudomonas aeruginosa [5] = assay: Antibacterial activity against Pseudomonas aeruginosa after 24 hrs by agar diffusion assay
Klebsiella pneumoniae [6] = assay: Antibacterial activity against Klebsiella pneumoniae after 24 hrs by agar diffusion assay
Escherichia coli [7] = assay: Antibacterial activity against Escherichia coli after 24 hrs by agar diffusion assay
Escherichia coli [8] = assay: Antibacterial activity against Escherichia coli after 24 to 48 hrs
Pseudomonas aeruginosa [9] = assay: Antibacterial activity against Pseudomonas aeruginosa after 24 to 48 hrs
Bacillus licheniformis [10] = assay: Antibacterial activity against Bacillus licheniformis after 24 to 48 hrs
Streptococcus pneumoniae [11] = assay: Antibacterial activity against Streptococcus pneumoniae after 24 to 48 hrs
Klebsiella pneumoniae [12] = assay: Antibacterial activity against Klebsiella pneumoniae after 24 to 48 hrs
Staphylococcus aureus [13] = assay: Antibacterial activity against Staphylococcus aureus after 24 to 48 hrs

GI50 (A549) [nM] | GI50 (HeLa) [nM] | GI50 (MDA-MB-231) [nM] | MIC (Pseudomonas aeruginosa [9]) [µg/mL] | MIC (Bacillus licheniformis [10]) [µg/mL] | MIC (Streptococcus pneumoniae [11]) [µg/mL] | MIC (Staphylococcus aureus [13]) [µg/mL] | Compound | GI50 [1] [nM] | inhibition zone (IZ) (Streptococcus pneumoniae [2]) [mm] | inhibition zone (IZ) (Staphylococcus aureus [3]) [mm] | inhibition zone (IZ) (Bacillus licheniformis [4]) [mm] | inhibition zone (IZ) (Pseudomonas aeruginosa [5]) [mm] | inhibition zone (IZ) (Klebsiella pneumoniae [6]) [mm] | inhibition zone (IZ) (Escherichia coli [7]) [mm] | MIC (Escherichia coli [8]) [µg/mL] | MIC (Klebsiella pneumoniae [12]) [µg/mL]
30 | 930 | 2830 |  |  |  |  | CCc1nc2nc(C(F)(F)F)ccc2c(=O)n1Cc1cn(CCC(F)(F)C(F)(F)C(F)(F)C(F)(F)C(F)(F)C(F)(F)F)nn1 | 730 |  |  |  |  |  |  |  | 
770 | 860 | 1240 |  |  |  |  | O=c1c2ccc(C(F)(F)F)nc2nc(-c2ccccc2)n1Cc1cn(-c2ccc([N+](=O)[O-])cc2)nn1 | 2550 |  |  |  |  |  |  |  | 
2310 | 1040 | 1050 |  |  |  |  | CCCCCCCCCCn1cc(COc2nc(-c3ccccc3)nc3nc(C(F)(F)F)ccc23)nn1 | 490 | 16 | 10 | 8 |  |  |  |  | 
5260 | 860 | 1700 |  |  |  |  | CCc1nc2nc(C(F)(F)F)ccc2c(=O)n1Cc1cn(CC(=O)Nc2ccccc2)nn1 | 320 |  |  |  |  |  |  |  | 
200 | 870 | 1100 |  |  |  |  | CCCCCCCCCCn1cc(Cn2c(-c3ccco3)nc3nc(C(F)(F)F)ccc3c2=O)nn1 | 3180 |  |  |  |  |  |  |  | 
1910 | 1200 | 520 |  |  |  |  | FC(F)(F)c1ccc2c(OCc3cn(CCC(F)(F)C(F)(F)C(F)(F)C(F)(F)C(F)(F)C(F)(F)F)nn3)nc(-c3ccccc3)nc2n1 | 2990 |  |  |  |  |  |  |  | 
300 | 890 | 140 |  |  |  |  | O=c1c2ccc(C(F)(F)F)nc2ncn1Cc1cn(-c2ccc([N+](=O)[O-])cc2)nn1 | 1890 |  |  |  |  |  |  |  | 
140 | 890 | 650 |  |  |  |  | O=C(Cn1cc(COc2nc(-c3ccccc3)nc3nc(C(F)(F)F)ccc23)nn1)Nc1ccccc1 | 4500 |  |  |  |  |  |  |  | 
3810 | 1240 | 710 |  |  |  |  | O=c1c2ccc(C(F)(F)F)nc2ncn1Cc1cc(-c2ccc(Br)cc2)no1 | 1160 |  |  |  |  |  |  |  | 
2870 | 1270 | 1340 |  |  |  |  | CCCCCCCCn1cc(Cn2c(CC)nc3nc(C(F)(F)F)ccc3c2=O)nn1 | 3280 | 6 | 9 | 8 | 7 | 7 | 7 |  | 
1090 | 840 | 870 |  |  |  |  | O=c1c2ccc(C(F)(F)F)nc2ncn1Cc1cc(-c2ccc(Cl)cc2)no1 | 7080 |  |  |  |  |  |  |  | 
520 | 870 | 9890 |  |  |  |  | O=c1c2ccc(C(F)(F)F)nc2nc(-c2ccccc2)n1Cc1cn(CCC(F)(F)C(F)(F)C(F)(F)C(F)(F)C(F)(F)C(F)(F)F)nn1 | 2950 |  |  |  |  |  |  |  | 
3140 | 910 | 1010 |  |  |  |  | O=c1c2ccc(C(F)(F)F)nc2nc(-c2ccccc2)n1Cc1cc(-c2cccc3ccccc23)no1 | 140 |  |  |  |  |  |  |  | 
4050 | 890 | 240 |  |  |  |  | COc1cc(-n2cc(COc3nc(-c4ccccc4)nc4nc(C(F)(F)F)ccc34)nn2)cc(OC)c1OC | 820 |  |  |  |  |  |  |  | 
860 | 810 | 2210 | 12.5 (≈ 26.9 µM) | 12.5 (≈ 26.9 µM) | 12.5 (≈ 26.9 µM) | 12.5 (≈ 26.9 µM) | CCCCCCCCCCn1cc(Cn2c(CC)nc3nc(C(F)(F)F)ccc3c2=O)nn1 | 20 | 28 | 15 | 21 | 16 | 19 | 25 | 25 (≈ 53.8 µM) | 25 (≈ 53.8 µM)
5330 | 950 | 570 |  | 25 (≈ 51.6 µM) | 12.5 (≈ 25.8 µM) | 12.5 (≈ 25.8 µM) | CCCCCCCCn1cc(COc2nc(-c3ccccc3)nc3nc(C(F)(F)F)ccc23)nn1 | 2660 | 26 | 22 | 21 |  |  | 8 |  | 
80 | 63 | 42 |  |  |  |  | COC(=O)Nc1nc2cc(C(=O)c3cccs3)ccc2[nH]1 [NOCODAZOLE] | 29 |  |  |  |  |  |  |  | 
 |  |  |  |  |  |  | CO[C@H]1/C=C/O[C@@]2(C)Oc3c(C)c(O)c4c(O)c(c(/C=N/N5CCN(C)CC5)c(O)c4c3C2=O)NC(=O)/C(C)=C\C=C\[C@H](C)[C@H](O)[C@@H](C)[C@@H](O)[C@@H](C)[C@H](OC(C)=O)[C@@H]1C [RIFAMPIN] |  | 25 | 25 | 24 | 29 | 27 | 27 |  | 

Compound | GI50 (A549) [nM] | GI50 (HeLa) [nM] | GI50 (MDA-MB-231) [nM] | MIC (Pseudomonas aeruginosa [9]) [µg/mL] | MIC (Bacillus licheniformis [10]) [µg/mL] | MIC (Streptococcus pneumoniae [11]) [µg/mL] | MIC (Staphylococcus aureus [13]) [µg/mL] | GI50 [1] [nM] | inhibition zone (IZ) (Streptococcus pneumoniae [2]) [mm] | inhibition zone (IZ) (Staphylococcus aureus [3]) [mm] | inhibition zone (IZ) (Bacillus licheniformis [4]) [mm] | inhibition zone (IZ) (Pseudomonas aeruginosa [5]) [mm] | inhibition zone (IZ) (Klebsiella pneumoniae [6]) [mm] | inhibition zone (IZ) (Escherichia coli [7]) [mm] | MIC (Escherichia coli [8]) [µg/mL] | MIC (Klebsiella pneumoniae [12]) [µg/mL]
O=C(O)c1cn(C2CC2)c2cc(N3CCNCC3)c(F)cc2c1=O [CIPROFLOXACIN] |  |  |  |  | 12.5 (≈ 37.7 µM) | 12.5 (≈ 37.7 µM) | 12.5 (≈ 37.7 µM) |  | 23 | 25 | 24 | 25 | 22 |  | 12.5 (≈ 37.7 µM) | 12.5 (≈ 37.7 µM)
